Tests used:
Calu-6 cells = experiment: γH2AX and 53BP1 foci after 10 Gy; assay type: cell-based, human; conditions: 5 μM, 5 hours after irradiation
Description: (§1) Cell line γH2AX and 53BP1 foci immunofluorescence and quantitation
(§2) Cells grown on coverslips or in 96-well plates were treated with 1 or 5 µM NU5455 or DMSO 1 hour prior to irradiation (0, 2.5 or 10 Gy) using an RS 320 X-ray Research System (Gulmay Medical). At set timepoints (15 or 30 minutes, or 1, 4, 5, 6, or 24 hours post-irradiation), cells were washed and fixed in methanol or 3% paraformaldehyde (PFA). Cells were blocked and permeabilized in 1% (v/v) goat serum/1% (w/v) BSA/0.1% (v/v) Triton X100 or 0.1% (v/v) Triton X100 containing 10% (w/v) dried milk powder and 2% (w/v) bovine serum albumin, followed by incubation with antibodies against γH2AX (JBW301, Millipore #05-636) and/or 53BP1 (Cell Signaling #4937). Cells were then washed and incubated with Alexa Fluor 488 goat anti-mouse and/or Alexa Fluor 568 goat anti -rabbit antibodies (A11001 or A11011 respectively, Invitrogen). In A549 and Calu-6, cells were Hoechst stained (5 µg/ml), and the average numbers of γH2AX and 53BP1 foci per cell were quantified from 400 nuclei per sample using an In Cell analyzer 1000 (GE Healthcare). For MCF7 cells, coverslips were mounted using Vectashield mounting medium with DAPI (Vector Labs) and imaged using a Leica TCS SPE confocal fluorescence microscope. Total fluorescence intensity was determined using ImagePro Plus 5.0 software (Media Cybernetics).
(§3) Clonogenic survival assays […]

A549 cells = experiment: γH2AX and 53BP1 foci after 10 Gy; assay type: cell-based, human; conditions: 5 μM, 5 hours after irradiation
Description: as §1, §2, §3

How did the “number of colocalized γH2AX and 53BP1 foci” value (Calu-6 cells) turn out when `CN(C(=O)CN1CCOCC1)c1ccc2sc3c(-c4cccc5c(=O)cc(N6CC7CCC(C6)O7)oc45)cccc3c2c1` [NU5455] was run?
The value was “significant increase”.

And the “number of colocalized γH2AX and 53BP1 foci” value (A549 cells)?
Its value is “significant increase”.

Reference: paper PMC6934184, “Selective DNA-PKcs inhibition extends the therapeutic index of localized radiotherapy and chemotherapy” (The Journal of Clinical Investigation, 2019)
